Experimental data as given in patent US20190263804A1, “AZABENZIMIDAZOLE DERIVATIVES AS PI3K BETA INHIBITORS” (Janssen Pharmaceutica NV, priority 2016, published 2019).
Blank lines part the entries; values can stand above or below the compound they belong to.

How the values were obtained:
PIK3Cγ_h = biological target: T1, PIK3Cγ_h (Homo sapiens, UniProt P48736); assay: KINOMEscan enzyme binding assay, PIK3Cγ; settings: KINOMEscan (DiscoveRx)
T1 construct: purchased DiscoveRx Corporation, San Diego (contract assay service)
Protocol: (§1) Enzyme Binding Assays (KINOMEscan®)
(§2) Kinase enzyme binding affinities of compounds disclosed herein were determined using the KINOMEscan technology performed by DiscoveRx Corporation, San Diego, Calif., USA (www.kinomescan.com). Table A reports the obtained Kd values (nM), with the Kd being the inhibitor binding constant (‘n.d.’ means not determined): […]

[1] = system: phosphorylation of Akt (Thr308) in PC-3 cells; assay: Cellular assay: phospho-Akt (Thr308) MSD ELISA in PC-3 cells; format: cell-based; settings: Homo sapiens, 1 h, 60 min compound incubation, read-out: IC50 pAkt_Thr308
Protocol: (§3) Cellular activity of PI3K(3 inhibitors was determined by quantifying the phosphorylation of Akt in PC-3 cells. Akt phosphorylated at Ser473 and Thr308 were measured using an enzyme-linked immunosorbent assay (ELISA; Meso Scale Discovery (MSD), Gaithersburg, Md.) and specific primary antibodies from MSD.
(§4) On day 1, PC3 cells (ATCC # […]) were seeded into PerkinElmer MW96 plates at 25.000 cells per well, in 75 μl complete culture medium (DMEM high glucose, AQmedia™, D0819, Sigma-Aldrich) containing 10% heat inactivated FCS and incubated at 37° C., 5% CO2 during 24 hours. On day 2, compound or DMSO (0.3%) was added and cells were further incubated for 60 min at 37° C., 5% CO2 in a total volume of 100 μl of medium.
(§5) The phosphoprotein assay was executed according to vendor instructions in the Phospho-Akt (Ser473) Assay Whole Cell Lysate Kit (MSD # K15100D-3) and the Phospho-Akt (Thr308) Assay Whole Cell Lysate Kit (MSD # K151DYD-3) using the lysis, blocking and wash buffer provided.
(§6) Briefly, at the end of the cell treatment period, media were removed by aspiration and adherent cells were lysed in 50 μl ice-cold lysis buffer. MSD plates are supplied pre-coated with capture antibodies for Phospho-Akt (Ser473 and Thr308). After blocking, lysates from tissue culture plates were added and plates were washed. Then, a solution containing the detection antibody (anti-total Akt conjugated with an electrochemiluminescent compound-MSD Sulfo-tag label) was added. The signals were detected using an MSD SECTOR Imager 6000 and are proportional to the phospho-Akt titres.
(§7) Data were processed. The percentage of inhibition was plotted against the log concentration of test compounds, and the sigmoidal log concentration-effect curve of best fit was calculated by nonlinear regression analysis. From these concentration-response curves, the IC50 values were calculated. Five concentrations were used for curve fitting.

[2] = system: phosphorylation of Akt (Ser473) in PC-3 cells; assay: Cellular assay: phospho-Akt (Ser473) MSD ELISA in PC-3 cells; format: cell-based; settings: Homo sapiens, 1 h, 60 min compound incubation, read-out: IC50 pAkt_S473
Protocol: as §3, §4, §5, §6, §7

PIK3Cδ_h = biological target: T2, PIK3Cδ_h (Homo sapiens, UniProt O00329); assay: KINOMEscan enzyme binding assay, PIK3Cδ; settings: KINOMEscan (DiscoveRx)
T2 construct: purchased DiscoveRx Corporation, San Diego (contract assay service)
T2 sequence (O00329 1-1044): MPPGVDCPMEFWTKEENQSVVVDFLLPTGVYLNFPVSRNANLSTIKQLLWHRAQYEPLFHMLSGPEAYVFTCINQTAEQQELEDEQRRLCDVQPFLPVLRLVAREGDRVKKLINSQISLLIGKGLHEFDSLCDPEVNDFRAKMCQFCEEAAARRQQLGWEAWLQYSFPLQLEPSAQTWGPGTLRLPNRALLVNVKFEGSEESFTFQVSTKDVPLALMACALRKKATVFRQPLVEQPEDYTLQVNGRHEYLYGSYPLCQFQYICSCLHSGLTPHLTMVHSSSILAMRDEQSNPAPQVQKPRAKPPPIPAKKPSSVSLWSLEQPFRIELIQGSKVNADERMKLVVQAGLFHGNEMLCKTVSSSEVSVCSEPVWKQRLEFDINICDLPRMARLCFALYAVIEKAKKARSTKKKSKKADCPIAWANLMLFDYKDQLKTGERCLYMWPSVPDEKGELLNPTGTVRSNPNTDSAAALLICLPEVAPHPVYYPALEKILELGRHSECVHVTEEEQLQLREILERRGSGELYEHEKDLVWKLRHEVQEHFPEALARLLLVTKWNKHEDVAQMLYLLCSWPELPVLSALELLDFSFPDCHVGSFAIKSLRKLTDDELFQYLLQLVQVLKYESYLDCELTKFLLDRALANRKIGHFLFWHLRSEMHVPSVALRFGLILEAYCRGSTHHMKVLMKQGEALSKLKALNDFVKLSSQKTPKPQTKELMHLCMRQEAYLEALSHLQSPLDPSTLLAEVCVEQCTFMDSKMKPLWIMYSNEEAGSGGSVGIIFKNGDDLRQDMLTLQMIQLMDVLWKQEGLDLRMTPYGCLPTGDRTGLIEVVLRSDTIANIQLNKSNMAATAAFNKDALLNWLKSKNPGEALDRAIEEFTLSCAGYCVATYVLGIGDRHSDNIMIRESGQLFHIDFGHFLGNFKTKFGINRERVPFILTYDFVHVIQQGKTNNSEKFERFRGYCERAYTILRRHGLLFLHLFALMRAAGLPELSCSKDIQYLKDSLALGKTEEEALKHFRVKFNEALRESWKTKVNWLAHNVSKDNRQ
Protocol: as §1, §2

MTOR_h = biological target: T3, MTOR_h (Homo sapiens, UniProt P42345); assay: KINOMEscan enzyme binding assay, MTOR; settings: KINOMEscan (DiscoveRx)
T3 construct: purchased DiscoveRx Corporation, San Diego (contract assay service)
Protocol: as §1, §2

PIK3Cβ_h = biological target: T4, PIK3Cβ_h (Homo sapiens, UniProt P42338); assay: KINOMEscan enzyme binding assay, PIK3Cβ; settings: KINOMEscan (DiscoveRx)
T4 construct: purchased DiscoveRx Corporation, San Diego (contract assay service)
Protocol: as §1, §2

PIK3Cα_h = biological target: T5, PIK3Cα_h (Homo sapiens, UniProt P42336); assay: KINOMEscan enzyme binding assay, PIK3Cα; settings: KINOMEscan (DiscoveRx)
T5 construct: purchased DiscoveRx Corporation, San Diego (contract assay service)
Protocol: as §1, §2

T1 sequence (P48736 whole entry): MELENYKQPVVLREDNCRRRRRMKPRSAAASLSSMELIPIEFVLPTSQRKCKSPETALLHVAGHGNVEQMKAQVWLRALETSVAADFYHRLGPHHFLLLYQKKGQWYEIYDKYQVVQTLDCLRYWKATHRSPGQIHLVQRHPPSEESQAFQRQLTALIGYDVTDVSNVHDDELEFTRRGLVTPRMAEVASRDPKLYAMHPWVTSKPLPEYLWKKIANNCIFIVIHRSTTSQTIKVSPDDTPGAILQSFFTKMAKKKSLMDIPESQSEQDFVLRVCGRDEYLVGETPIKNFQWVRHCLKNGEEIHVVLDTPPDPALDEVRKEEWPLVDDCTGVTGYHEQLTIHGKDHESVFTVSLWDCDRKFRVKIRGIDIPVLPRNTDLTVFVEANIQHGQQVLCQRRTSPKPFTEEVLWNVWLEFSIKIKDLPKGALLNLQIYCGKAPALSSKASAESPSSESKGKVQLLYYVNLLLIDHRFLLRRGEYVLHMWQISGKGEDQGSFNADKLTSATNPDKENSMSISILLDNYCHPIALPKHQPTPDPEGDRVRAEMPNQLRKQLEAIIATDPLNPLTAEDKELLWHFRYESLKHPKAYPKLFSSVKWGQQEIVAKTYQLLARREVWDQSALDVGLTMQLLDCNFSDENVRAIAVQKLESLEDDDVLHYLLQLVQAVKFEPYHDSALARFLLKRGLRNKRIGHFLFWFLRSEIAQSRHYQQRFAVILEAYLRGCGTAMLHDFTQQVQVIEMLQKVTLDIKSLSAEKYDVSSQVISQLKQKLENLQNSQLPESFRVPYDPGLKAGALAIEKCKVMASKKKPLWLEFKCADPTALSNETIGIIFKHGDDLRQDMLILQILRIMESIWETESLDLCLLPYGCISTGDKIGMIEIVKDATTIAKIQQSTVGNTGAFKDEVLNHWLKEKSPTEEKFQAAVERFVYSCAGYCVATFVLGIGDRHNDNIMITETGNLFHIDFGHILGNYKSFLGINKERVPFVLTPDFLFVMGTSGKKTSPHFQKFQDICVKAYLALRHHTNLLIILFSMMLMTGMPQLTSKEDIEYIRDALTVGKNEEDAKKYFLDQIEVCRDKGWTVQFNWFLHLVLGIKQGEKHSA
T4 sequence (P42338 whole entry): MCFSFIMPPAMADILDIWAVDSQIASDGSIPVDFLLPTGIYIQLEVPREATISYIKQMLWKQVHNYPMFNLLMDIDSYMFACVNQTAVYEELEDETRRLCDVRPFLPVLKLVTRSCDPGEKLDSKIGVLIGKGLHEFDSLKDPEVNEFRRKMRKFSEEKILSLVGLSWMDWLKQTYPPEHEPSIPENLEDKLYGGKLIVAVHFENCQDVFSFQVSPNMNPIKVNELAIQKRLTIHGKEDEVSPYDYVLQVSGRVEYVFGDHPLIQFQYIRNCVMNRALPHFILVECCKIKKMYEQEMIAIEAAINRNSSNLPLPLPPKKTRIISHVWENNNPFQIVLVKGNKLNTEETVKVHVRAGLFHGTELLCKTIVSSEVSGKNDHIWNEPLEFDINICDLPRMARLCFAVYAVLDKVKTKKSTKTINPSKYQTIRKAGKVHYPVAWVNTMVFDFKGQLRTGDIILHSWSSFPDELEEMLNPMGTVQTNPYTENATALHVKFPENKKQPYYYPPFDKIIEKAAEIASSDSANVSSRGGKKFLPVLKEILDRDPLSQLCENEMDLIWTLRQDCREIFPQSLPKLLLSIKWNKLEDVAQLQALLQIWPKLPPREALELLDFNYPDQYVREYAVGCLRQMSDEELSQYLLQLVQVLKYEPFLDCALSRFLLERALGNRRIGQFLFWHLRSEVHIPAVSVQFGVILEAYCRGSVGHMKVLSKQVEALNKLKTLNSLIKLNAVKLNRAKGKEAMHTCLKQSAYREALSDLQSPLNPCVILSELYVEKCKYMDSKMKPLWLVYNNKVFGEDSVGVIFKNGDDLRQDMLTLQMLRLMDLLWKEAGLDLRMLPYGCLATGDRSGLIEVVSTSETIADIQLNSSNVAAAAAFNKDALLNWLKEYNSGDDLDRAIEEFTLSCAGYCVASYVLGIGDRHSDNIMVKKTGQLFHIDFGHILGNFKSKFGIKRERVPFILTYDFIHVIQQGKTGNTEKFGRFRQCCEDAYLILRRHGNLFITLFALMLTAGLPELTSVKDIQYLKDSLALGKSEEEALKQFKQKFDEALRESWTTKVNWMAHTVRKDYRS
T5 sequence (P42336 whole entry): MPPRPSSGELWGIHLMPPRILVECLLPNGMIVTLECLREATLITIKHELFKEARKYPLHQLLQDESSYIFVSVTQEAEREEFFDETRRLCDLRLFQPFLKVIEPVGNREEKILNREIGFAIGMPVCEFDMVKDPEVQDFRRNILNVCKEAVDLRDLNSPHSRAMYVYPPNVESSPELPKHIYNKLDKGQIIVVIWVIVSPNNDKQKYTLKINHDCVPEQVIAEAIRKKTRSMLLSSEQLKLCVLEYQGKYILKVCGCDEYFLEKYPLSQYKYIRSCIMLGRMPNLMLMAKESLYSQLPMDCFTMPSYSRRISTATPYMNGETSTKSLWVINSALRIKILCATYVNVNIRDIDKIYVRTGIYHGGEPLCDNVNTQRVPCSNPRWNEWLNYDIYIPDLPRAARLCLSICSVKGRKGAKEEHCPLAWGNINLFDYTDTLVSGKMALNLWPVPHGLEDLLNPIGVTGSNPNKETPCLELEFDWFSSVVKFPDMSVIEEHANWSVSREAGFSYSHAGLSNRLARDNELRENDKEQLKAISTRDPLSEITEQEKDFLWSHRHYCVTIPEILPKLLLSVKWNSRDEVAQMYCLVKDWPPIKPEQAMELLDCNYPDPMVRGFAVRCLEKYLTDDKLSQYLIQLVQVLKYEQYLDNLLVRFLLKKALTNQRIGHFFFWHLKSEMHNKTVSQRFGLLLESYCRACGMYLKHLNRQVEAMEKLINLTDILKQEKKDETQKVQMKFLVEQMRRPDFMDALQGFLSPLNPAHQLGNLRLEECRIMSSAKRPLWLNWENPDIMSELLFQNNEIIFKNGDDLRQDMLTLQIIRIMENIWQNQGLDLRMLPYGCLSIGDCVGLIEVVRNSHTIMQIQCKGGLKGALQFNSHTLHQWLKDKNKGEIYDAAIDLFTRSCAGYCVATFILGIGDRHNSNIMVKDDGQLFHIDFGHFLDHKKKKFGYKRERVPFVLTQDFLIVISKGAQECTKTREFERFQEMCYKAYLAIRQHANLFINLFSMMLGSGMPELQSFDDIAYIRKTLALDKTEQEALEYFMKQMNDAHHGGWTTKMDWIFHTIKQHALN

SMILES: Cc1c(Cn2c(CN3CC(O)C3)nc3cnc(N4CCOCC4)cc32)cccc1C(F)(F)F [Compound 7]
Kd (PIK3Cγ_h): > 30.2 µM
IC50 [1]: 0.39 µM
IC50 [2]: 0.48 µM
Kd (PIK3Cδ_h): 1.1 µM
Kd (MTOR_h): 4.6 µM
Kd (PIK3Cβ_h): 0.003 µM
Kd (PIK3Cα_h): 2.2 µM

SMILES: Cc1cccc(Cn2c(C)nc3c(N)nc(C4=CCOCC4)cc32)c1C [Compound 12]
Kd (PIK3Cγ_h): > 30.2 µM
IC50 [1]: 0.11 µM
IC50 [2]: 0.31 µM
Kd (PIK3Cδ_h): 0.7 µM
Kd (MTOR_h): > 30.2 µM
Kd (PIK3Cβ_h): 0.003 µM
Kd (PIK3Cα_h): 13.2 µM

SMILES: Cc1c(Cn2c(C)nc3c(N)nc(C4=CCOCC4)cc32)cccc1C(F)(F)F [Compound 4]
Kd (PIK3Cγ_h): > 30.2 µM
IC50 [1]: 0.15 µM
IC50 [2]: ~0.14 µM
Kd (PIK3Cδ_h): 4.3 µM
Kd (MTOR_h): > 30.2 µM
Kd (PIK3Cβ_h): 0.009 µM
Kd (PIK3Cα_h): 17 µM

SMILES: Cc1c(Cl)cccc1Cn1c(CN2CCS(=O)(=O)CC2)nc2cnc(N3CCOCC3)cc21 [Compound 5]
Kd (PIK3Cγ_h): > 30.2 µM
IC50 [1]: 0.13 µM
IC50 [2]: ~0.1 µM
Kd (PIK3Cδ_h): 1.5 µM
Kd (MTOR_h): > 30.2 µM
Kd (PIK3Cβ_h): 0.004 µM
Kd (PIK3Cα_h): 2.6 µM

SMILES: Cc1c(Cn2c(C)nc3c(N)nc(N4CCOCC4)cc32)cccc1C(F)(F)F [Compound 15]
Kd (PIK3Cγ_h): > 30.2 µM
IC50 [1]: 0.09 µM
IC50 [2]: 0.12 µM
Kd (PIK3Cδ_h): 6.3 µM
Kd (MTOR_h): > 30.2 µM
Kd (PIK3Cβ_h): 0.398 µM
Kd (PIK3Cα_h): 18.2 µM

SMILES: Cc1c(F)cccc1Cn1c(C)nc2c(N)nc(N3CCOCC3)cc21 [Compound 16]
Kd (PIK3Cγ_h): > 30.2 µM
IC50 [1]: 0.18 µM
IC50 [2]: 0.41 µM
Kd (PIK3Cδ_h): 5.6 µM
Kd (MTOR_h): > 30.2 µM
Kd (PIK3Cβ_h): 0.132 µM
Kd (PIK3Cα_h): > 30.2 µM

SMILES: Cc1nc2cnc(N3CCOCC3)cc2n1Cc1cccc2c1CNCC2 [Compound 9]
Kd (PIK3Cγ_h): > 30.2 µM
IC50 [1]: ~0.46 µM
IC50 [2]: ~0.48 µM
Kd (PIK3Cδ_h): 5.1 µM
Kd (MTOR_h): > 30.2 µM
Kd (PIK3Cβ_h): 0.079 µM
Kd (PIK3Cα_h): > 30.2 µM

SMILES: Cc1c(Cn2c(CN3CC4(CC(O)C4)C3)nc3cnc(N4CCOCC4)cc32)cccc1C(F)(F)F [Compound 3]
Kd (PIK3Cγ_h): > 30.2 µM
IC50 [1]: 0.04 µM
IC50 [2]: 0.07 µM
Kd (PIK3Cδ_h): 0.2 µM
Kd (MTOR_h): > 30.2 µM
Kd (PIK3Cβ_h): 0.001 µM
Kd (PIK3Cα_h): 1.6 µM

The next lines start with the values.

Kd (PIK3Cγ_h): > 30.2 µM
IC50 [1]: > 0.51 µM
IC50 [2]: > 0.51 µM
Kd (PIK3Cδ_h): 4.2 µM
Kd (MTOR_h): > 30.2 µM
Kd (PIK3Cβ_h): 0.1 µM
Kd (PIK3Cα_h): 26.9 µM
SMILES: Cc1nc2cnc(N3CCOCC3)cc2n1Cc1cccc2c1CN(C)CC2 [Compound 10]

Kd (PIK3Cγ_h): 21.9 µM
IC50 [1]: 0.22 µM
IC50 [2]: 0.32 µM
Kd (PIK3Cδ_h): 3.3 µM
Kd (MTOR_h): > 30.2 µM
Kd (PIK3Cβ_h): 0.011 µM
Kd (PIK3Cα_h): > 30.2 µM
SMILES: Cc1c(F)cccc1Cn1c(C)nc2c(N)nc(C3=CCOCC3)cc21 [Compound 14]

Kd (PIK3Cγ_h): 22.4 µM
IC50 [1]: 0.43 µM
IC50 [2]: 0.18 µM
Kd (PIK3Cδ_h): 1.5 µM
Kd (MTOR_h): > 30.2 µM
Kd (PIK3Cβ_h): 0.002 µM
Kd (PIK3Cα_h): 3.7 µM
SMILES: Cc1c(Cn2c(C)nc3cnc(N4CCOCC4)cc32)cccc1C(F)(F)F [Compound 2]

Kd (PIK3Cγ_h): 32.4 µM
IC50 [1]: > 0.51 µM
IC50 [2]: > 0.51 µM
Kd (PIK3Cδ_h): 1.3 µM
Kd (MTOR_h): > 30.2 µM
Kd (PIK3Cβ_h): 0.027 µM
Kd (PIK3Cα_h): 8.7 µM
SMILES: Cc1nc2cnc(N3CCOCC3)cc2n1Cc1cccc2c1CN(CCO)CC2 [Compound 11]

Kd (PIK3Cγ_h): > 30.2 µM
IC50 [1]: 0.29 µM
Kd (PIK3Cδ_h): 2.6 µM
Kd (MTOR_h): > 30.2 µM
Kd (PIK3Cβ_h): 0.011 µM
Kd (PIK3Cα_h): 11 µM
SMILES: Cc1c(Cn2c(CN3CCS(=O)(=O)CC3)nc3cnc(N4CCOCC4)cc32)cccc1C(F)(F)F [Compound 8]

Kd (PIK3Cγ_h): > 30.2 µM
IC50 [1]: 0.19 µM
IC50 [2]: ~0.23 µM
Kd (PIK3Cδ_h): 1.5 µM
Kd (MTOR_h): > 30.2 µM
Kd (PIK3Cβ_h): 0.019 µM
Kd (PIK3Cα_h): 8.3 µM
SMILES: Cc1cccc(Cn2c(C)nc3c(N)nc(N4CCOCC4)cc32)c1C [Compound 17]

Kd (PIK3Cγ_h): 18.2 µM
IC50 [1]: 0.04 µM
IC50 [2]: 0.05 µM
Kd (PIK3Cδ_h): 0.8 µM
Kd (MTOR_h): ≥ 30.2 µM
Kd (PIK3Cβ_h): 0.001 µM
Kd (PIK3Cα_h): 2.8 µM
SMILES: Cc1c(Cn2c(CO)nc3cnc(N4CCOCC4)cc32)cccc1C(F)(F)F [Compound 6]

Kd (PIK3Cγ_h): 17 µM
IC50 [1]: 0.08 µM
IC50 [2]: 0.17 µM
Kd (PIK3Cδ_h): 1.3 µM
Kd (MTOR_h): > 30.2 µM
Kd (PIK3Cβ_h): 0.003 µM
Kd (PIK3Cα_h): 5.9 µM
SMILES: Cc1c(Cn2c(C)nc3cnc(C4=CCOCC4)cc32)cccc1C(F)(F)F [Compound 13]

Kd (PIK3Cγ_h): 9.5 µM
IC50 [1]: 0.03 µM
IC50 [2]: 0.04 µM
Kd (PIK3Cδ_h): 0.6 µM
Kd (MTOR_h): ≥ 30.2 µM
Kd (PIK3Cβ_h): 0.002 µM
Kd (PIK3Cα_h): 2.1 µM
SMILES: Cc1c(Cl)cccc1Cn1c(C)nc2cnc(N3CCOCC3)cc21 [Compound 1]
